Laboratory results from patent publication US20150018311A1, “THERAPEUTIC BORON-CONTAINING COMPOUNDS” (priority 2012, published 2015).

Columns and labels:
Experiment in all cases: Growth in liquid media in presence of test compound
Type in all cases: cell-based
[1] = tested on: Mycobacterium tuberculosis (H37Rv)
[2] = tested on: Candida albicans (ATCC 90028)
Description: (§1) Test organisms used were the bacterial strains Escherichia coli (ATCC 25922), Pseudomonas aeruginosa (ATCC 27853), Staphylococcus aureus (ATCC 25923), Streptococcus pyogenes (ATCC 19615), and Mycobacterium tuberculosis (H37Rv), and the yeast strain Candida albicans (ATCC 90028).
(§2) The liquid media used for growth were Luria-Bertani (Becton Dickinson, Sparks, Md.) and Mueller-Hinton (bio-Merieux, Paris, France) broths, but with Saburo medium for Candida and Middlebrook 7H9 medium (Difco) for mycobacteria.
(§3) The strains were grown at 37° C. and after suitable cell concentrations had been reached, 100 μL of each cell suspension was added to a tube with growth media and test compound. Cultivation of the bacteria was then carried out in the presence of each test compound at 37° C. and the tubes examined for visible growth. The compounds were tested at concentrations of either 500 mg/l, 50 mg/l or 5 mg/l. This assay was repeated twice.
(§4) Some compounds were only tested against some test organisms. It will be appreciated that the charge of these molecules will depend on the environment, some of the Examples are shown with a suitable counter ion, some without.

[3] = tested on: Streptococcus pyogenes (ATCC 19615)
Description: as §1, §2, §3, §4

[4] = tested on: Staphylococcus aureus (ATCC 25923)
Description: as §1, §2, §3, §4

[5] = tested on: Escherichia coli (ATCC 25922)
Description: as §1, §2, §3, §4

[6] = tested on: Pseudomonas aeruginosa (ATCC 27853)
Description: as §1, §2, §3, §4

SMILES	Growth in the presence of test compound, M. tuberculosis ([1]; 5 mg/L)	Growth in the presence of test compound, M. tuberculosis ([1]; 50 mg/L)	Growth in the presence of test compound, M. tuberculosis ([1]; 500 mg/L)	Growth in the presence of test compound, C. albicans ([2]; 5 mg/L)	Growth in the presence of test compound, C. albicans ([2]; 50 mg/L)	Growth in the presence of test compound, C. albicans ([2]; 500 mg/L)	Growth in the presence of test compound, S. pyogenes ([3]; 5 mg/L)	Growth in the presence of test compound, S. pyogenes ([3]; 50 mg/L)	Growth in the presence of test compound, S. pyogenes ([3]; 500 mg/L)	Growth in the presence of test compound, S. aureus ([4]; 5 mg/L)	Growth in the presence of test compound, S. aureus ([4]; 50 mg/L)	Growth in the presence of test compound, S. aureus ([4]; 500 mg/L)	Growth in the presence of test compound, E. coli ([5]; 5 mg/L)	Growth in the presence of test compound, E. coli ([5]; 50 mg/L)	Growth in the presence of test compound, E. coli ([5]; 500 mg/L)	Growth in the presence of test compound, P. aeruginosa ([6]; 5 mg/L)	Growth in the presence of test compound, P. aeruginosa ([6]; 50 mg/L)	Growth in the presence of test compound, P. aeruginosa ([6]; 500 mg/L)
CC1(C)C2CC3OB(C(CNC(=O)C(N)CCCCN)c4ccccc4)OC3(C)C1C2 (stereo not drawn) [Compound 24]	+	+	−															
NCCCC[C@H](N)C(=O)NC[C@@H](CCc1ccccc1)B(O)O [Compound 37]	+	+	−	+	+	−												
C[C@H](CNC(=O)[C@@H](N)CCCCN)B1OC2CC3CC(C3(C)C)[C@@]2(C)O1 (stereo partly drawn) [Compound 16]	+	±	−	+	+	±												
CC1(C)C2CC3OB([C@@H](CNC(=O)[C@@H](N)Cc4ccccc4)c4ccccc4)O[C@]3(C)C1C2 (stereo partly drawn) [Compound 23]	+	+	−	+	+	−	+	+	−	+	+	−						
CC1(C)C2CC3OB([C@@H](CNC(=O)[C@@H](N)Cc4ccccc4)Cc4ccccc4)O[C@]3(C)C1C2 (stereo partly drawn) [Compound 10]	−	−	−	+	+	±	+	+	±	+	+	±						
C[C@@H](NC(=O)[C@@H](N)Cc1ccccc1)[C@@H](Cc1ccccc1)B1OC2CC3CC(C3(C)C)[C@@]2(C)O1 (stereo partly drawn) [Compound 27]	+	−	±	+	+	±	+	+	±									
CC1(C)C2CC3OB(CCNC(=O)[C@@H](N)CCCCN)O[C@]3(C)C1C2 (stereo partly drawn) [Compound 32]	+	+	−	+	+	−							+	+	±			
CC1(C)C2CC3OB(CC(Cc4ccccc4)NC(=O)C(N)Cc4ccccc4)OC3(C)C1C2 (stereo not drawn) [Compound 2]	+	+	±															
CC1(C)C2CC3OB([C@@H](CNC(=O)[C@@H](N)CCCCN)Cc4ccccc4)O[C@]3(C)C1C2 (stereo partly drawn) [Compound 9]	−	−	−	+	+	−	+	+	−	+	+	−				+	+	±
C[C@H](N)C(=O)N[C@@H](CB(O)O)Cc1ccccc1 [Compound 35]	+	+	−															
